Experimental data taken from patent US11730720B2, “ALK5 inhibitors” (THERAVANCE BIOPHARMA R&D IP, LLC, priority 2018, dated 2023).

How the values were obtained:
[1] = molecular target: T1, recombinant human ALK5 (TGF-βR1) protein (Homo sapiens, UniProt P36897); assay: Biochemical ALK5 (TGF-βR1) assay to measure pKi (LANCE Ultra ULight kinase assay); conditions: apparent pKi, converted from pIC50 using the Cheng-Prusoff equation
T1 construct: purchased Life Technologies PR9075A
T1 sequence (P36897 34-503): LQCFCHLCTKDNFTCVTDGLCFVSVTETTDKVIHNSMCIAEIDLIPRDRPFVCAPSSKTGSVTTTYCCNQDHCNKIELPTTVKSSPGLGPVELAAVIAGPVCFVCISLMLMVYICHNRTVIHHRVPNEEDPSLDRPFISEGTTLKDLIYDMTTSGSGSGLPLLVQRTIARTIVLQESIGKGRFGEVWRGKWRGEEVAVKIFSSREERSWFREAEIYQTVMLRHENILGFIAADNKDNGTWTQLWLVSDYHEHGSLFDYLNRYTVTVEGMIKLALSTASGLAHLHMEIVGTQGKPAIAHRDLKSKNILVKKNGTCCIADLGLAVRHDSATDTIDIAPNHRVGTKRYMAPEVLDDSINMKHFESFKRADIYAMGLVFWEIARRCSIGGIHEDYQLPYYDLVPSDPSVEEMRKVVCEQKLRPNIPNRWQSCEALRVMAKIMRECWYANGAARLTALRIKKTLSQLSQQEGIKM
Summary of the method: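 TR-FRET kinase format: compound dose range 10 μM–25 pM equilibrated 60 min with human ALK5 and ULight-labelled topoisomerase 2α peptide in HEPES/MgCl2 buffer pH 7.5 with DTT. Reaction started with ATP (125 μM stock, 5× final), 60 min at 37° C, stopped with EDTA/Eu-anti-phospho antibody; pKi derived from pIC50 via Cheng-Prusoff.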

[2] = tested on: TGF-β-stimulated SMAD3 phosphorylation in BEAS-2B cells; assay: Cellular ALK5 potency assay, inhibition of TGF-β stimulated pSMAD3 formation in BEAS-2B cells; assay type: cell-based; conditions: Homo sapiens, inhibition of TGF-β (10 ng/mL) stimulated pSMAD3 formation, 1 hour compound incubation, read-out: BEAS2B pIC50 (converted)
Summary of the method: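 Phospho-SMAD3 was quantified by AlphaLISA in lysates of human lung epithelial BEAS-2B cells. Compound was added 1 h (37 °C, HEPES/BSA-supplemented HBSS) before a 30 min challenge with 10 ng/mL TGF-β. Values are pIC50 relative to stimulated cells without compound.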

SMILES	Ki [1] [nM]	IC50 [2] [nM]
CN1CCN(c2ccc(Nc3cnc4ccc(-c5nc[nH]c5-c5cc(Cl)ccc5F)nc4c3)nc2)CC1 [Compound 2-1, 6-(5-(5-chloro-2-fluorophenyl)-1H-imidazol-4-yl)-N-(5-(4-methylpiperazin-1-yl)pyridin-2-yl)-1,5-naphthyridin-3-amine]	0.0398 to 0.316	25.1 to 158
Fc1ccc(Cl)cc1-c1n[nH]cc1-c1ccc2ncc(-c3cn(Cc4cnc5c(c4)CNCC5)nn3)cc2n1 [Compound 1-112, 2-[3-(5-chloro-2-fluoro-phenyl)-1H-pyrazol-4-yl]-7-[1-(5,6,7,8-tetrahydro-1,6-naphthyridin-3-ylmethyl)triazol-4-yl]-1,5-naphthyridine]	0.0398 to 0.316	25.1 to 158
Fc1ccc(Cl)cc1-c1n[nH]cc1-c1ccc2ncc(N3CCC(N4CCCCC4)C3)cc2n1 (racemic) [Compound 1-39, 2-[3-(5-chloro-2-fluoro-phenyl)-1H-pyrazol-4-yl]-7-[rac-(3R)-3-(1-piperidyl)pyrrolidin-1-yl]-1,5-naphthyridine]	0.0398 to 0.316	≤ 20
CN(C)C1CN(c2cnc3ccc(-c4c[nH]nc4-c4cc(Cl)ccc4F)nc3c2)C1 [Compound 1-31, 1-(6-(3-(5-chloro-2-fluorophenyl)-1H-pyrazol-4-yl)-1,5-naphthyridin-3-yl)-N,N-dimethylazetidin-3-amine]	0.0398 to 0.316	≤ 20
Fc1ccc(Cl)cc1-c1nc2ccccn2c1-c1ccc2ncc(N3CCNCC3)cc2c1 [Compound 19-4, 6-(2-(5-chloro-2-fluorophenyl)imidazo[1,2-a]pyridin-3-yl)-3-(piperazin-1-yl)quinoline]	0.0398 to 0.316	200 to 1260
COC(=O)CC1CN(c2cnc3ccc(-c4nc[nH]c4-c4cccc(Cl)c4)nc3c2)CCN1 (stereo not shown) [Compound 29-3, methyl 2-(4-(6-(5-(3-chlorophenyl)-1H-imidazol-4-yl)-1,5-naphthyridin-3-yl)piperazin-2-yl)acetate]	0.398 to 3.16	25.1 to 158
Fc1cc(F)c(-c2n[nH]cc2-c2ccc3ncc(-c4ncn5c4CNCC5)cc3n2)cc1Cl [Compound 6-49, 2-[3-(5-chloro-2,4-difluoro-phenyl)-1H-pyrazol-4-yl]-7-(5,6,7,8-tetrahydroimidazo[1,5-a]pyrazin-1-yl)-1,5-naphthyridine]	0.0398 to 0.316	25.1 to 158
Fc1ccc(Cl)cc1-c1n[nH]cc1-c1ccc2ncc(N3CC4CNC4C3)cc2n1 (stereo not shown) [Compound 1-64, 2-[3-(5-chloro-2-fluoro-phenyl)-1H-pyrazol-4-yl]-7-(3,6-diazabicyclo[3.2.0]heptan-3-yl)-1,5-naphthyridine]	0.0398 to 0.316	≤ 20
CNCCn1cc(-c2cnc3ccc(-c4c(-c5cc(Cl)ccc5F)[nH]c5cccnc45)nc3c2)cn1 [Compound 25-2, 2-[4-[6-[2-(5-chloro-2-fluoro-phenyl)-1H-pyrrolo[3,2-b]pyridin-3-yl]-1,5-naphthyridin-3-yl]pyrazol-1-yl]-N-methyl-ethanamine]	0.398 to 3.16	200 to 1260
Fc1ccc(Cl)cc1-c1[nH]cnc1-c1ccc2ncc(-c3cnc4n3CCN4)cc2c1 [Compound 17-9, 6-(5-(5-chloro-2-fluorophenyl)-1H-imidazol-4-yl)-3-(2,3-dihydro-1H-imidazo[1,2-a]imidazol-5-yl)quinoline]	0.0398 to 0.316	25.1 to 158
Fc1ccc(Cl)cc1-c1[nH]cnc1-c1ccc2ncc(N3CCn4nc(C5=CCNC5)nc4C3)cc2n1 [Compound 2-14, 2-(5-(5-chloro-2-fluorophenyl)-1H-imidazol-4-yl)-7-(2-(2,5-dihydro-1H-pyrrol-3-yl)-5,6-dihydro-[1,2,4]triazolo[1,5-a]pyrazin-7(8H)-yl)-1,5-naphthyridine]	0.0398 to 0.316	200 to 1260
Fc1ccc(Cl)cc1-c1[nH]nnc1-c1ccc2ncc(-c3c[nH]nc3C(F)(F)F)cc2n1 [Compound 5-2, 2-(5-(5-chloro-2-fluorophenyl)-1H-1,2,3-triazol-4-yl)-7-(3-(trifluoromethyl)-1H-pyrazol-4-yl)-1,5-naphthyridine]	3.98 to 31.6	25.1 to 158
COCc1cccc(-c2n[nH]cc2-c2ccc3ncc(N4CCC(N5CCCC5)CC4)cc3n2)c1 [Compound 14-3, 2-[3-[3-(methoxymethyl)phenyl]-1H-pyrazol-4-yl]-7-(4-pyrrolidin-1-yl-1-piperidyl)-1,5-naphthyridine]	3.98 to 31.6	25.1 to 158
COC(=O)CC1CN(c2cnc3ccc(-c4c[nH]nc4-c4cc(Cl)ccc4F)nc3c2)CCN1 (stereo not shown) [Compound 1-136, methyl 2-[4-[6-[3-(5-chloro-2-fluoro-phenyl)-1H-pyrazol-4-yl]-1,5-naphthyridin-3-yl]piperazin-2-yl]acetate]	0.0398 to 0.316	≤ 20
Fc1ccc(-c2n[nH]cc2-c2ccc3ncc(N4CCC(N5CCCC5)CC4)cc3n2)cc1F [Compound 8-11, 2-[3-(3,4-difluorophenyl)-1H-pyrazol-4-yl]-7-(4-pyrrolidin-1-yl-1-piperidyl)-1,5-naphthyridine]	0.398 to 3.16	25.1 to 158
NCCN1CCN(c2cnc3ccc(-c4c[nH]nc4-c4cc(Cl)ccc4F)nc3c2)CC1 [Compound 1-57, 2-[4-[6-[3-(5-chloro-2-fluoro-phenyl)-1H-pyrazol-4-yl]-1,5-naphthyridin-3-yl]piperazin-1-yl]ethanamine]	0.0398 to 0.316	25.1 to 158
CNCCn1ccc(-c2cnc3ccc(-c4c[nH]nc4-c4cc(Cl)c(F)cc4F)nc3c2)n1 [Compound 6-40, 2-(3-(6-(3-(5-chloro-2,4-difluorophenyl)-1H-pyrazol-4-yl)-1,5-naphthyridin-3-yl)-1H-pyrazol-1-yl)-N-methylethan-1-amine]	≤ 0.0316	≤ 20
CC(C)N1CCN(CCNc2cnc3ccc(-c4c[nH]nc4-c4cc(Cl)ccc4F)cc3c2)CC1 [Compound 16-5, 6-(3-(5-chloro-2-fluorophenyl)-1H-pyrazol-4-yl)-N-(2-(4-isopropylpiperazin-1-yl)ethyl)quinolin-3-amine]	0.398 to 3.16	25.1 to 158
COC(=O)[C@@H]1CN(c2cnc3ccc(-c4c[nH]nc4-c4cc(Cl)ccc4F)nc3c2)CCN1 [Compound 1-59, methyl (2S)-4-[6-[3-(5-chloro-2-fluoro-phenyl)-1H-pyrazol-4-yl]-1,5-naphthyridin-3-yl]piperazine-2-carboxylate]	0.398 to 3.16	25.1 to 158
Fc1ccc(Cl)cc1-c1n[nH]cc1-c1ccc2ncc(-c3nnc4n3CCN4)cc2n1 [Compound 1-110, 2-[3-(5-chloro-2-fluoro-phenyl)-1H-pyrazol-4-yl]-7-(6,7-dihydro-5H-imidazo[2,1-c][1,2,4]triazol-3-yl)-1,5-naphthyridine]	0.0398 to 0.316	200 to 1260
CNC1CCN(c2cnc3ccc(-c4c[nH]nc4-c4cc(Cl)ccc4F)nc3c2)C1 (stereo not shown) [Compound 1-56, 1-[6-[3-(5-chloro-2-fluoro-phenyl)-1H-pyrazol-4-yl]-1,5-naphthyridin-3-yl]-N-methyl-pyrrolidin-3-amine]	0.0398 to 0.316	≤ 20
O=C(O)[C@H]1CN(c2cnc3ccc(-c4c[nH]nc4-c4cc(Cl)c(F)cc4F)nc3c2)CCN1 [Compound 6-68, (2R)-4-[6-[3-(5-chloro-2,4-difluoro-phenyl)-1H-pyrazol-4-yl]-1,5-naphthyridin-3-yl]piperazine-2-carboxylic acid]	0.398 to 3.16	200 to 1260
CNCCn1cc(-c2cnc3ccc(-c4c[nH]nc4-c4cccc(COC)c4)nc3c2)cn1 [Compound 14-8, 2-(4-(6-(3-(3-(methoxymethyl)phenyl)-1H-pyrazol-4-yl)-1,5-naphthyridin-3-yl)-1H-pyrazol-1-yl)-N-methylethan-1-amine]	0.0398 to 0.316	25.1 to 158
CC(C)N1CC=C(c2cnc3ccc(-c4c[nH]nc4-c4cc(Cl)c(F)cc4F)nc3c2)C1 [Compound 6-44, 2-[3-(5-chloro-2,4-difluoro-phenyl)-1H-pyrazol-4-yl]-7-(1-isopropyl-2,5-dihydropyrrol-3-yl)-1,5-naphthyridine]	0.0398 to 0.316	≤ 20
CC(C)N1CCN(CCNc2cnc3ccc(-c4nc[nH]c4-c4cc(Cl)ccc4F)nc3c2)CC1 [Compound 2-2, 6-[5-(5-chloro-2-fluoro-phenyl)-1H-imidazol-4-yl]-N-[2-(4-isopropylpiperazin-1-yl)ethyl]-1,5-naphthyridin-3-amine]	0.0398 to 0.316	25.1 to 158
Fc1ccc(Cl)cc1-c1n[nH]cc1-c1ccc2ncc(N[C@@H]3CCNC3)cc2n1 [Compound 1-19, 6-[3-(5-chloro-2-fluoro-phenyl)-1H-pyrazol-4-yl]-N-[(3R)-pyrrolidin-3-yl]-1,5-naphthyridin-3-amine]	0.398 to 3.16	25.1 to 158
